From patent publication US7855166B2, “Sulfonylamino(thio)carbonyl compounds” (Bayer Cropscience GmbH, priority 2005, dated 2010)

Key:
[1] = system: weed plants such as Sinapis alba, Chrysanthemum segetum, Avena sativa, Stellaria media, Echinochloa crus-galli, Lolium multiflorum, Setaria viridis, Abutilon …; experiment: Pre-emergence effect on weeds (greenhouse pot test, visual scoring); format: in vivo; conditions: applied pre-emergence at a rate of 0.3 kg or less of active substance per hectare; scored after 3 to 4 weeks in comparison to untreated controls
[2] = system: weed plants such as Sinapis alba, Echinochloa crus-galli, Lolium multiflorum, Chrysanthemum segetum, Setaria viridis, Abutilon theophrasti, Amaranthus …; experiment: Post-emergence effect on weeds (greenhouse pot test, visual scoring); format: in vivo; conditions: applied post-emergence (three-leaf stage) at a rate of 0.3 kg or less of active substance per hectare; scored after about 3 to 4 weeks in comparison to untreated controls

Compound | herbicidal action against weed plants (visual scoring of plant damage or emergence damage) [1] | herbicidal action against weed plants (effect scored visually) [2]
COc1nn(C(=O)NS(=O)(=O)c2c(I)cccc2OCC(C)C)c(=O)n1C [Compound 1.289] | very good herbidical action | very good herbicidal action
CCCOc1nn(C(=O)NS(=O)(=O)c2c(I)cccc2OC(C)C(F)(F)F)c(=O)n1C (centres unmarked) [Compound 1.526] | very good herbidical action | very good herbicidal action
COc1cccc(I)c1S(=O)(=O)NC(=O)n1nc(OC(C)C)n(C)c1=O [Compound 1.196] | very good herbidical action | very good herbicidal action
CCOc1nn(C(=O)NS(=O)(=O)c2cc(C)c(C)cc2I)c(=O)n1C1CC1 [Compound 1.867] | very good herbidical action | very good herbicidal action
CCOc1nn(C(=O)NS(=O)(=O)c2ccc(C(F)(F)F)cc2I)c(=O)n1C [Compound 1.890] | very good herbidical action | very good herbicidal action
CCOc1nn(C(=O)NS(=O)(=O)c2cccc(Cl)c2I)c(=O)n1C1CC1 [Compound 1.833] | very good herbidical action | very good herbicidal action
COc1nn(C(=O)NS(=O)(=O)c2ccc(Cl)cc2I)c(=O)n1C1CC1 [Compound 1.873] | very good herbidical action | very good herbicidal action
CCCCOc1cccc(I)c1S(=O)(=O)NC(=O)n1nc(OCC)n(C)c1=O [Compound 1.274] | very good herbidical action | very good herbicidal action
CCCOc1nn(C(=O)NS(=O)(=O)c2c(I)cccc2OC(C)C(F)(F)F)c(=O)n1C1CC1 (centres unmarked) [Compound 1.535] | very good herbidical action | very good herbicidal action
CCOc1nn(C(=O)NS(=O)(=O)c2c(I)cccc2OCC(F)(F)C(F)(F)F)c(=O)n1C1CC1 [Compound 1.555] | very good herbidical action | very good herbicidal action
COc1nn(C(=O)NS(=O)(=O)c2c(I)cccc2OS(C)(=O)=O)c(=O)n1C [Compound 1.711] | very good herbidical action | very good herbicidal action
CCCOc1nn(C(=O)NS(=O)(=O)c2cc(C)c(C)cc2I)c(=O)n1C [Compound 1.864] | very good herbidical action | very good herbicidal action
CCC(C)Oc1cccc(I)c1S(=O)(=O)NC(=O)n1nc(OC)n(C)c1=O (centres unmarked) [Compound 1.281] | very good herbidical action | very good herbicidal action
CCOc1nn(C(=O)NS(=O)(=O)c2cc(C)c(C)cc2I)c(=O)n1C [Compound 1.863] | very good herbidical action | very good herbicidal action
CCCOc1cccc(I)c1S(=O)(=O)NC(=O)n1nc(OCC)n(C2CC2)c1=O [Compound 1.241] | very good herbidical action | very good herbicidal action
CCC(C)Oc1cccc(I)c1S(=O)(=O)NC(=O)n1nc(OC)n(C2CC2)c1=O (centres unmarked) [Compound 1.286] | very good herbidical action | very good herbicidal action
CCCOc1nn(C(=O)NS(=O)(=O)c2c(I)cccc2OC(C)C)c(=O)n1C [Compound 1.255] | very good herbidical action | very good herbicidal action
CCCc1ccc(S(=O)(=O)NC(=O)n2nc(OC)n(C)c2=O)c(I)c1 [Compound 1.876] | very good herbidical action | very good herbicidal action
CCOc1nn(C(=O)NS(=O)(=O)c2cccc(Cl)c2I)c(=O)n1C [Compound 1.829] | very good herbidical action | very good herbicidal action
O=C(NS(=O)(=O)c1ccc(C(F)(F)F)cc1I)n1nc(C2CC2)n(C2CC2)c1=O [Compound 1.892] | very good herbidical action | very good herbicidal action
CCCOc1nn(C(=O)NS(=O)(=O)c2c(I)cccc2OC(C)C)c(=O)n1C1CC1 [Compound 1.264] | very good herbidical action | very good herbicidal action
COc1nn(C(=O)NS(=O)(=O)c2cc(C)c(C)cc2I)c(=O)n1C [Compound 1.862] | very good herbidical action | very good herbicidal action
CCOc1nn(C(=O)NS(=O)(=O)c2c(Cl)cc(C(F)(F)F)cc2I)c(=O)n1C1CC1 [Compound 1.847] | very good herbidical action | very good herbicidal action
COc1nn(C(=O)NS(=O)(=O)c2c(I)cccc2C(F)(F)F)c(=O)n1C [Compound 1.133] | very good herbidical action | very good herbicidal action
CC(C)Oc1nn(C(=O)NS(=O)(=O)c2c(I)cccc2OCC(F)(F)C(F)(F)F)c(=O)n1C [Compound 1.550] | very good herbidical action | very good herbicidal action
COc1nn(C(=O)NS(=O)(=O)c2ccc(C(F)(F)F)cc2I)c(=O)n1C1CC1 [Compound 1.896] | very good herbidical action | very good herbicidal action
COc1nn(C(=O)NS(=O)(=O)c2c(I)cccc2OCC(F)(F)F)c(=O)n1C1CC1 [Compound 1.488] | very good herbidical action | very good herbicidal action
CCOc1nn(C(=O)NS(=O)(=O)c2c(I)cccc2OS(=O)(=O)N(C)C)c(=O)n1C1CC1 [Compound 1.755] | very good herbidical action | very good herbicidal action
